Results published in US10981894B2, “Melanocortin subtype-2 receptor (MC2R) antagonists and uses thereof” (Crinetics Pharmaceuticals, Inc., priority 2018, dated 2021).

What follows are molecules tested against hMC2 receptor (Homo sapiens, UniProt Q01718) (assay: hMC2 membrane binding assay ([125I]ACTH (1-39) Tyr23, SPA)). Conditions: crude hMC2R membranes from CRE-bla-CHO-K1 cells expressing hMC2 receptor and hMRAP; [125I]ACTH (1-39) Tyr23 0.2 nM; 1.5 hours at room temperature; read-out: MC2R binding potency.
Set-up: scale not given here
Procedure, shortened: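 Ki comes from non-linear regression of SPA scintillation counts. Displacement of 0.2 nM [125I]ACTH(1-39) Tyr23 by compound dose series (usually 0–10,000 nM final) ran 1.5 h at room temperature. Membranes came from CHO-K1 CRE-bla cells stably expressing hMC2R plus hMRAP, bead-coupled in pH 7.4 buffer with 0.2% BSA.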

Chain of hMC2 receptor (Q01718 whole entry): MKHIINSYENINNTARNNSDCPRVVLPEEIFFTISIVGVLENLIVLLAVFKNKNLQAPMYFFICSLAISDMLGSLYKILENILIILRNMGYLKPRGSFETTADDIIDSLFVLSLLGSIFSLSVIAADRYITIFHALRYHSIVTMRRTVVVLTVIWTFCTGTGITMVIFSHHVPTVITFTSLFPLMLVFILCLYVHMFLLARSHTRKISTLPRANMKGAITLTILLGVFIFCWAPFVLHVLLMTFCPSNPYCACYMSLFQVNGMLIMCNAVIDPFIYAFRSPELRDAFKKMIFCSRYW
Chain of hMC2 receptor (Q8TCY5 whole entry partner): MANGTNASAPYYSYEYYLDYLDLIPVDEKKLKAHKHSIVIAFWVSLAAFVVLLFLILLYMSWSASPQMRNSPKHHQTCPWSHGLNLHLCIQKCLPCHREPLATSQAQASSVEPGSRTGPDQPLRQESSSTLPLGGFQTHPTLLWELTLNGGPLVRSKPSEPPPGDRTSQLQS

Structure (SMILES) | Ki [nM]
CCOc1ncccc1-c1ccc(N2CCN(C(=O)c3ccc(F)cc3C(F)(F)F)C[C@H]2CC)c(C(=O)N[C@@H]2CCN(C)C2)n1 [Compound 1-258, 2′-ethoxy-5-[(2R)-2-ethyl-4-[4-fluoro-2-(trifluoromethyl)benzoyl]piperazin-1-yl]-N-[(3R)-1-methylpyrrolidin-3-yl]-[2,3′-bipyridine]-6-carboxamide] | < 10
CCOc1ncccc1-c1ccc(N2CCN(C(=O)N3CCc4cccc(C(F)(F)F)c43)C[C@H]2CC)c(C(=O)NC2CN(C)C2)n1 [Compound 1-418, 2′-ethoxy-5-[(2R)-2-ethyl-4-[7-(trifluoromethyl)-2,3-dihydro-1H-indole-1-carbonyl]piperazin-1-yl]-N-(1-methylazetidin-3-yl)-[2,3′-bipyridine]-6-carboxamide] | < 10
CCOc1ncccc1-c1ccc(N2CCN(C(=O)c3ccc(Cl)cc3C(F)(F)F)C[C@H]2CC)c(C(=O)NCCN(C)C)n1 [Compound 1-150, 5-[(2R)-4-[4-chloro-2-(trifluoromethyl)benzoyl]-2-ethylpiperazin-1-yl]-N-[2-(dimethylamino)ethyl]-2′-ethoxy-[2,3′-bipyridine]-6-carboxamide Acetate] | < 10
CCOc1ncccc1-c1ccc(N2CCN(C(=O)c3ccc(Cl)cc3C(F)(F)F)C[C@H]2CC)c(C(=O)NC[C@H]2CCN2C)c1 [Compound 1-228, 2-[(2R)-4-[4-chloro-2-(trifluoromethyl)benzoyl]-2-ethylpiperazin-1-yl]-5-(2-ethoxypyridin-3-yl)-N-{[(2R)-1-methylazetidin-2-yl]methyl}benzamide] | < 10
CCOc1ccccc1-c1ccc(N2CCN(C(=O)c3ccc(Cl)cc3C(F)(F)F)C[C@H]2CC)c(C(=O)NCCN(C)C)n1 [Compound 1-149, 3-[(2R)-4-[4-chloro-2-(trifluoromethyl)benzoyl]-2-ethylpiperazin-1-yl]-N-[2-(dimethylamino)ethyl]-6-(2-ethoxyphenyl)pyridine-2-carboxamide] | < 10
CCOc1ncccc1-c1ccc(N2CCN(C(=O)c3ccc(F)cc3Cl)C[C@H]2CC)c(C(=O)N[C@@H]2CCNC2)c1 [Compound 1-82, 2-[(2R)-4-(2-chloro-4-fluorobenzoyl)-2-ethylpiperazin-1-yl]-5-(2-ethoxypyridin-3-yl)-N-[(3R)-pyrrolidin-3-yl]benzamide] | < 10
CCOc1ncccc1-c1ccc(N2CCN(C(=O)C34CCC(C(F)(F)F)(CC3)CC4)C[C@H]2CC)c(C(=O)N[C@@H]2CCN(C)C2)n1 [Compound 1-282, 2′-ethoxy-5-[(2R)-2-ethyl-4-[4-(trifluoromethyl)bicyclo[2.2.2]octane-1-carbonyl]piperazin-1-yl]-N-[(3R)-1-methylpyrrolidin-3-yl]-[2,3′-bipyridine]-6-carboxamide] | < 10
CCOc1ncccc1-c1ccc(N2CCN(C(=O)C3(C(F)(F)F)CCCC3)C[C@H]2CC)c(C(=O)N[C@@H]2CCN(C)C2)n1 [Compound 1-255, 2′-ethoxy-5-[(2R)-2-ethyl-4-[1-(trifluoromethyl)cyclopentanecarbonyl]piperazin-1-yl]-N-[(3R)-1-methylpyrrolidin-3-yl]-[2,3′-bipyridine]-6-carboxamide] | < 10

More lines, now with the values ahead:

Ki [nM] | Structure (SMILES)
< 10 | CCOc1ncccc1-c1ccc(N2CCN(C(=O)N3CCc4cc(F)cc(Cl)c43)C[C@H]2CC)c(C(=O)NC2CN(C)C2)n1 [Compound 1-420, 5-[(2R)-4-(7-chloro-5-fluoro-2,3-dihydro-1H-indole-1-carbonyl)-2-ethylpiperazin-1-yl]-2′-ethoxy-N-(1-methylazetidin-3-yl)-[2,3′-bipyridine]-6-carboxamide]
< 10 | CCOc1ncccc1-c1ccc(N2CCN(C(=O)c3ccc(Cl)cc3C(F)(F)F)C[C@H]2CC)c(C(=O)NC2CNC2)c1F [Compound 1-198, N-(azetidin-3-yl)-6-[(2R)-4-[4-chloro-2-(trifluoromethyl)benzoyl]-2-ethylpiperazin-1-yl]-3-(2-ethoxypyridin-3-yl)-2-fluorobenzamide]
< 10 | CCOc1ccccc1-c1ccc(N2CCN(C(=O)n3ccc4cc(F)cc(C#N)c43)C[C@H]2CC)c(C(=O)N[C@@H]2CCN(C)C2)n1 [Compound 1-439, 3-[(2R)-4-(7-cyano-5-fluoro-1H-indole-1l-carbonyl)-2-ethylpiperazin-1-yl]-6-(2-ethoxyphenyl)-N-[(3R)-1-methylpyrrolidin-3-yl]pyridine-2-carboxamide]
< 10 | CCOc1ncccc1-c1ccc(N2CCN(C(=O)c3ccc(F)cc3Cl)C[C@H]2CC)c(C(=O)N[C@@H]2CCNC2)c1F [Compound 1-73, 6-[(2R)-4-(2-chloro-4-fluorobenzoyl)-2-ethylpiperazin-1-yl]-3-(2-ethoxypyridin-3-yl)-2-fluoro-N-[(3R)-pyrrolidin-3-yl]benzamide]
< 10 | CCOc1ncccc1-c1ccc(N2CCN(C(=O)C34CCC(C(F)(F)F)(CC3)CC4)C[C@H]2CC)c(C(=O)N[C@@H]2CCNC2)n1 [Compound 1-274, 2′-ethoxy-5-[(2R)-2-ethyl-4-[4-(trifluoromethyl)bicyclo[2.2.2]octane-1-carbonyl]piperazin-1-yl]-N-[(3R)-pyrrolidin-3-yl]-[2,3′-bipyridine]-6-carboxamide]
< 10 | CCOc1ncccc1-c1ccc(N2CCN(C(=O)O[C@H](C(C)(C)C)C(F)(F)F)C[C@H]2CC)c(C(=O)N[C@@H]2CCN(C)C2)n1 (single isomer, unassigned) [Compound 1-406]
< 10 | CCOc1ncccc1-c1ccc(N2CCN(C(=O)OC3(CC)CCCC3)C[C@H]2CC)c(C(=O)N[C@@H]2CCN(C)C2)n1 [Compound 1-397, 1-ethylcyclopentyl (3R)-4-(2′-ethoxy-6-{[(3R)-1-methylpyrrolidin-3-yl]carbamoyl}-[2,3′-bipyridin]-5-yl)-3-ethylpiperazine-1-carboxylate]
10 to 100 | CC[C@@H]1CN(C(=O)c2ccc(C(F)(F)F)cc2Cl)CCN1c1ccc(-c2ccccc2C#N)cc1C(=O)NCCN [Compound 1-7, N-(2-aminoethyl)-4-[(2R)-4-[2-chloro-4-(trifluoromethyl)benzoyl]-2-ethylpiperazin-1-yl]-2′-cyano-[1,1′-biphenyl]-3-carboxamide]
< 10 | CCOc1ncccc1-c1ccc(N2CCN(C(=O)c3ccc(Cl)cc3C(F)(F)F)C[C@H]2CC)c(C(=O)NC[C@H]2CCN2)c1F [Compound 1-123, N-{[(2R)-azetidin-2-yl]methyl}-6-[(2R)-4-[4-chloro-2-(trifluoromethyl)benzoyl]-2-ethylpiperazin-1-yl]-3-(2-ethoxypyridin-3-yl)-2-fluorobenzamide]
< 10 | CCOc1ncccc1-c1ccc(N2CCN(C(=O)C3(C(F)(F)F)CCCCC3)C[C@H]2CC)c(C(=O)N[C@@H]2CCNC2)n1 [Compound 1-273, 2′-ethoxy-5-[(2R)-2-ethyl-4-[1-(trifluoromethyl)cyclohexanecarbonyl]piperazin-1-yl]-N-[(3R)-pyrrolidin-3-yl]-[2,3′-bipyridine]-6-carboxamide]
< 10 | CCOc1ccccc1-c1ccc(N2CCN(C(=O)N3CCC[C@H]3C(F)(F)F)C[C@H]2CC)c(C(=O)N[C@@H]2CCN(C)C2)n1 [Compound 1-374, 6-(2-ethoxyphenyl)-3-[(2R)-2-ethyl-4-[(2S)-2-(trifluoromethyl)pyrrolidine-1-carbonyl]piperazin-1-yl]-N-[(3R)-1-methylpyrrolidin-3-yl]pyridine-2-carboxamide]
